The record followed here is patent US20250296937A1, “CYCLIC BISBENZYL TETRAHYDROISOQUINOLINE COMPOUND, AND PREPARATION METHOD THEREFOR AND USE THEREOF” (Shanghai Institute of Materia Medica, Chinesse Academy of …, priority 2021, published 2025).

Holding throughout (assay type): cell-based
Data set [1] can be described thus: Cytotoxicity test on Vero E6 cells (CCK8). To be noted: African green monkey; Vero E6 cells, CCK8 kit. On the procedure: (§1) In this embodiment, the half toxicity concentration of each embodiment on Vero E6 cells was determined by CCK8 kit analysis (CC50).
(Tetrazolium assays rely on reduction of a dye to a coloured formazan, in cell work by metabolically active cells.)

The test system of data set [2] is 2019 novel coronavirus (SARS-CoV-2) original strain. Nature of the data set: Replication inhibitory activity against SARS-CoV-2 original strain in Vero E6 cells (qRT-PCR). To be noted: Severe acute respiratory syndrome coronavirus 2, Vero C1008; Vero E6 cells, MOI 0.01, 24 h p.i., viral copy number by qRT-PCR; read-out: Inhibition against viral replication of the original strain EC50. For orientation: Real-time PCR tracks product formation cycle by cycle.

The subject of data set [3] is Vero E6 cells. Nature of the data set: Cytotoxicity test on Vero E6 cells (CCK8). On the procedure:
as §1

The target of data set [4] is T1, hERG potassium channel (Homo sapiens, UniProt Q12809).
T1 construct: expressed in transfected cells
T1 sequence (Q12809 whole entry): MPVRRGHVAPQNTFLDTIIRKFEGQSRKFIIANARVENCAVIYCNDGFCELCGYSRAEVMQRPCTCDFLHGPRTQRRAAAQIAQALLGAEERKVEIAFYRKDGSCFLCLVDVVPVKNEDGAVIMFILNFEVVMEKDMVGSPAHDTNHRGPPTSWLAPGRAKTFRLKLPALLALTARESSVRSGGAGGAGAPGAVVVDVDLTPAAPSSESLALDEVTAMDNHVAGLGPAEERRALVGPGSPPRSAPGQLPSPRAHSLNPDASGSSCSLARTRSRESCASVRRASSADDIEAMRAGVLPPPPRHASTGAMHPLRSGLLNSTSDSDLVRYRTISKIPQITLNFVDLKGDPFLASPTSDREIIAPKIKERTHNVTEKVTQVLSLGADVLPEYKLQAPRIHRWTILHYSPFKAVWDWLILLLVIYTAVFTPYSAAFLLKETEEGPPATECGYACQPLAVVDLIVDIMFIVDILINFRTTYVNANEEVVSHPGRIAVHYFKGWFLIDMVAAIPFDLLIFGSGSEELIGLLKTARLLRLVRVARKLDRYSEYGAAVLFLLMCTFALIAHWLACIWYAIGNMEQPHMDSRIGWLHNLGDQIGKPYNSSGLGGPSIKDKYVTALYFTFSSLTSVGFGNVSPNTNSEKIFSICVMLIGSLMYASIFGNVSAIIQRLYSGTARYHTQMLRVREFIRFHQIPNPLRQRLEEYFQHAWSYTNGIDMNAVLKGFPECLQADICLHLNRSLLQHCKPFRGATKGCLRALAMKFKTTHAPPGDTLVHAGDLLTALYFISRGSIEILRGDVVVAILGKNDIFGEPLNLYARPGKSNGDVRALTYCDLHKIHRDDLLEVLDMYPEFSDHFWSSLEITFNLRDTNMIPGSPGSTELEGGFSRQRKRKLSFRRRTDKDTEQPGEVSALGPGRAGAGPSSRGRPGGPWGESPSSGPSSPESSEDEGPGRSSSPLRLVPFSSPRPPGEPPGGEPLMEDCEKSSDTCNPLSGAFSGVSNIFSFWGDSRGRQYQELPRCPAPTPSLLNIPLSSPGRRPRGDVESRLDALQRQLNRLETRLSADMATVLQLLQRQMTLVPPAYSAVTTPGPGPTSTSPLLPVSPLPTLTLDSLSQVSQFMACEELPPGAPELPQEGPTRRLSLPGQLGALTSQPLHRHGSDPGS
Nature of the data set: hERG potassium channel whole-cell membrane clamp in CHO cells. The settings on record: CHO cells stably expressing hERG, whole-cell membrane clamp. As to the method:
Compounds were given for at least 1 min for each tested concentration, and at least 2 cells (n≥2) were tested per concentration.
For orientation: hERG is a cardiac potassium channel; its block is linked to QT prolongation.

As usually defined, the IC50 is the point on the concentration scale where inhibition reaches its midpoint. In general, EC50 refers to the concentration giving half of the maximal effect.

Read-outs that look alike come from different tables or passages of the source.

With `COc1cc2c3cc1Oc1c(OC)c(OC)cc4c1[C@H](Cc1ccc(cc1)Oc1cc(ccc1C(=O)C1CC1)C[C@H]3N(C)CC2)N(C)CC4` [Compound 54], the concentration for half-maximal inhibition (IC50) in data set [1] lay in the range of 10 to 30 µM. Further, in data set [2], the concentration for a half-maximal effect (EC50) lay within 1 to 5 µM.

Turning to `COc1ccc2cc1Oc1ccc(cc1)C[C@H]1c3cc(c(OC)cc3CCN1C)Oc1c(OC)c(OC)cc3c1[C@H](C2)N(C)CC3` [tetrandrine, reference compound], the “cytotoxicity (background statement)” value in data set [3] is given as “high cytotoxicity”.

In data set [1], `COc1cc2c3cc1Oc1c(OC)c(OC)cc4c1[C@H](Cc1ccc(cc1)Oc1cc(ccc1C(=O)NC(C)C)C[C@H]3N(C)CC2)N(C)CC4` [Compound 48] yielded a half-inhibitory concentration (IC50) of 10 to 30 µM. Also, the EC50 in data set [2] lay within 0.1 to 1 µM.

`COc1cc2c3cc1Oc1c(OC)c(OC)cc4c1[C@H](Cc1ccc(cc1)Oc1cc(ccc1C(=O)NC15CC6CC(CC(C6)C1)C5)C[C@H]3N(C)CC2)N(C)CC4` [Compound 49] yielded an IC50 in data set [1] of 5 to 10 µM. The EC50 in data set [2] fell in the range of 0.1 to 1 µM.

For `CNC(=O)c1ccc2cc1Oc1ccc(cc1)C[C@H]1c3c(cc(OC)c(OC)c3Oc3cc4c(cc3OC)CCN(C)[C@@H]4C2)CCN1C` [Compound 5], the “cytotoxicity on Vero E6 cells compared with oxyacanthine hydrochloride” value in data set [3] (Vero E6 cells) is on record as “weaker cytotoxicity than oxyacanthine hydrochloride”. Moreover, the IC50 was greater than 50 µM in data set [1] and 9.4 µM in data set [4]. Moreover, the EC50 in data set [2] was in the range of 1 to 10 µM.

In data set [1], `COc1cc2c3cc1Oc1c(OC)c(OC)cc4c1[C@H](Cc1ccc(cc1)Oc1cc(ccc1C(=O)NC1CCCC1)C[C@H]3N(C)CC2)N(C)CC4` [Compound 22] yielded an IC50 of 10 to 30 µM. In addition, in data set [2], the EC50 was in the range of 0.5 to 1.5 µM.

Turning to `COc1cc2c3cc1Oc1c(OC)c(OC)cc4c1[C@@H](Cc1ccc(O)c(c1)Oc1ccc(cc1)C[C@@H]3N(C)CC2)N(C)CC4` [berbamine, reference compound], in data set [3] (inventors' screening of natural products), the “cytotoxicity (background statement)” value is on record as “high cytotoxicity”.

On to `COc1cc2c3cc1Oc1c(OC)c(OC)cc4c1[C@H](Cc1ccc(cc1)Oc1cc(ccc1C(C)=O)C[C@H]3N(C)CC2)N(C)CC4` [Compound 19], for which, in data set [1], the 50% inhibitory concentration (IC50) was in the range of 30 to 50 µM. Moreover, in data set [2], the concentration giving a half-maximal response (EC50) fell in the range of 0.5 to 1.5 µM.

Turning to `COc1cc2c3cc1Oc1c(OC)c(OC)cc4c1[C@H](Cc1ccc(cc1)Oc1cc(ccc1C1CC1)C[C@H]3N(C)CC2)N(C)CC4` [Compound 38], in data set [1], the IC50 lay within 10 to 30 µM. For the same compound, the EC50 in data set [2] was in the range of 1 to 5 µM.

With `COc1cc2c3cc1Oc1c(OC)c(OC)cc4c1[C@H](Cc1ccc(cc1)Oc1cc(ccc1C(=O)NC1CCC1)C[C@H]3N(C)CC2)N(C)CC4` [Compound 50], the results for the IC50 in data set [1] and in data set [4] were 30 to 50 µM and 4.5 µM, respectively. For the same compound, the concentration for a half-maximal effect (EC50) in data set [2] is 0.1 to 1 µM.

Regarding `COc1cc2c3cc1Oc1c(OC)c(OC)cc4c1[C@H](Cc1ccc(cc1)Oc1cc(ccc1C)C[C@H]3N(C)CC2)N(C)CC4` [Compound 35], in data set [1], the IC50 was in the range of 10 to 30 µM. In data set [2], the EC50 was in the range of 1 to 5 µM.

`COc1cc2c3cc1Oc1c(OC)c(OC)cc4c1[C@H](Cc1ccc(cc1)Oc1cc(ccc1C(=O)Nc1cccnc1)C[C@H]3N(C)CC2)N(C)CC4` [Compound 51]: the half-inhibitory concentration (IC50) in data set [1] lay in the range of 10 to 30 µM. For the same compound, the EC50 in data set [2] lay within 0.1 to 1 µM.

With `COc1cc2c3cc1Oc1c(OC)c(OC)cc4c1[C@H](Cc1ccc(cc1)Oc1cc(ccc1C(=O)NCCOCCO)C[C@H]3N(C)CC2)N(C)CC4` [Compound 55], the IC50 was greater than 100 µM in data set [1] and greater than 40 µM in data set [4]. Moreover, the EC50 in data set [2] lay in the range of 1 to 5 µM.

In data set [1], `COc1cc2c3cc1Oc1c(OC)c(OC)cc4c1[C@H](Cc1ccc(cc1)Oc1cc(cc5[nH]c(=O)oc15)C[C@H]3N(C)CC2)N(C)CC4` [Compound 17] had an IC50 of 10 to 30 µM. The EC50 in data set [2] lay within 0.1 to 1 µM.

In data set [1], `COc1cc2c3cc1Oc1c(OC)c(OC)cc4c1[C@H](Cc1ccc(cc1)Oc1cc(ccc1C(C)O)C[C@H]3N(C)CC2)N(C)CC4` (stereo partly shown) [Compound 40] showed an IC50 of 30 to 50 µM. Further, the EC50 in data set [2] lay within 0.1 to 1 µM.

In turn, `COc1ccc(NC(=O)c2ccc3cc2Oc2ccc(cc2)C[C@H]2c4c(cc(OC)c(OC)c4Oc4cc5c(cc4OC)CCN(C)[C@@H]5C3)CCN2C)cc1` [Compound 52] registered an IC50 in data set [1] of 10 to 30 µM. In addition, the EC50 in data set [2] was 0.1 to 1 µM.
